Measurements: US10028911B2, “Sustained release formulation of methotrexate as a disease-modifying antirheumatic drug (DMARD) and an anti-cancer agent” (PACIRA PHARMACEUTICALS, INC., priority 2010, dated 2018)
Where two headings read alike, the source gives them in different places.

Legend:
[1] = Pharmacokinetic (PK) study in rats, subcutaneous injection, serum MTX by HPLC; assay type: in vivo, Male Sprague Dawley rats; settings: rat
Procedure: A pharmacokinetic (PK) study was performed in rats, comparing MTX solution control against four different formulations of MVL-encapsulated MTX at a dose level of 10 mg/kg. Male Sprague Dawley rats weighing 280-320 g received subcutaneous injections of either MTX solution or one of the MVL-encapsulated MTX formulations. The injections were made on the left lateral hind limb of each rat using 1 mL syringes fitted with 25G needles. Each treatment group contained 3 rats. Appropriate dilutions with sterile saline solution were performed to provide a dose of 10 mg/kg of MTX per rat, assuming an average rat weight of 300 g (final injection volume of 200 uL). Rats were ordered by pre-dose weight and then randomized into the different treatment groups.
Serum MTX analysis was performed to measure MTX in serum using a liquid-liquid extraction (LLE) HPLC method performed by an Agilent 1200 Series system produced by Agilent Technologies headquartered in Santa Clara, Calif. A 100 μL volume of rat serum was mixed with 300 μL of acetonitrile solution containing 1.1% formic acid (w/v) in a 1.5-mL Eppendorf tube. The deproteinization was carried out by vortexing for 1 minute, followed by centrifugation at 13,000 g for 5 minutes. The entire supernatant was transferred into a 1.5-mL microcentrifuge tube with screw cap. Acetonitrile was cleaned out by mixing 500 μL of chloroform with the supernatant. The tube was vortexed for 1 minute and then centrifuged at 13,000 g for 3 minutes. A 40 μL volume of the top aqueous portion was collected into a 100-μL vial insert for HPLC sample injection.
The HPLC system was equipped with a detector set at 302 nm and a 2.1-mm×250-mm Supelcosil LC-18-S with 5-μm particle size column. The mobile phase consisted of 102 mM sodium phosphate (dibasic), 32.5 mM citric acid, and 10% (v/v) acetonitrile (pH˜6.0). The flow rate was 0.6 mL/min, column temperature 35° C., and injection volume 20 μL. An MTX standard curve was prepared by spiking 6 different concentrations of MTX (22.7-727.1 ng/mL) into MTX-free rat serum. The MTX in each spiked standard was extracted using the same sample preparation method above.
Additional PK studies on Formulations 1 and 2 were performed as above, including some at reduced doses of MTX. The PK parameters from these studies are summarized below. […] The Cavg is the average plasma concentration over the 7 day time period.

[2] = cited from earlier work

For CN(Cc1cnc2nc(N)nc(N)c2n1)c1ccc(C(=O)N[C@@H](CCC(=O)O)C(=O)O)cc1 [MTX Solution, methotrexate], the “time to drop below LOQ in plasma” value ([1]; 10 mg/kg, FIG. 1) was at most 24 h, the AUC/Dose ([1]; MTX dose 10 mg/kg) was 1.55 µmol·h/L/mg/kg and the Cmax ([1]; MTX dose 10 mg/kg) was 14.4 µM. The tmax ([1]; MTX dose 10 mg/kg) was 30 min, the “standard AUC” value ([2]; oral immediate release dosage forms (Hoekstra et al. 2004)) was 2466 mcg/L-hr and the t1/2 ([2]; orally administered) was 8 to 10 h. For the same compound, the tmax ([2]; orally administered) was 1 to 3 h.
